Data from patent publication US20140011700A1 (Bristol-Myers Squibb Company, published 2014).

B1: biotinylated 2'-O-methylated RNA oligonucleotide (ssRNA)
RNA: UAGAAACAAGGGUGUUUUUUCAGAUCUAUUAAACUUCACCCUGCUUUUGCU
modifications: 2'-OMe (stated as 2-O-methylated, positions not specified)

Legend:
[1] = tested on: H3N2 (A/Brisbane/10/2007); type: cell-based
[2] = tested on: H1N1 (A/CA/07/2009); type: cell-based
[3] = tested on: H1N1 (A/SolomonIslands/3/2006); type: cell-based; conditions: read-out: A/Solomon-Islands/3/2006 (EC50)
[4] = molecular target: NP (nucleoprotein, A/WSN/33) (Influenza A virus, UniProt P15682)
[5] = tested on: A/WSN/33; type: cell-based
[6] = molecular target: Influenza A nucleoprotein (NP) (Influenza A virus (A/WSN/33, H1N1), UniProt P15682 P15682:8-498); experiment: SPR; conditions: tags: N-terminal hexahistidine (pET28A), expressed in E. coli Rosetta II (DE3); label: 5'-biotin

Row | Molecule | EC50 [1] [nM] | EC50 [2] [nM] | EC50 [3] [nM] | % Pd (polydispersity) [4] [%] | Rh (nm), hydrodynamic radius [4] [nm] | EC50 [5] [nM] | Kd [6] [nM]
1 | COc1ccccc1-c1noc(C)c1C(=O)N1CCN(c2ccc([N+](=O)[O-])cc2Cl)CC1 [Compound B] | 7310 ± 1800 | > 20000 | 660 ± 220 | 10.2 | 8.2 ± 0.3 |  | 
2 | Cc1cc(Br)cnc1N1CCN(C(=O)c2c(-c3ccccc3Cl)noc2C)CC1 [Compound D] | > 20000 | > 20000 | 2800 ± 530 | 13.5 | 8.9 ± 0.2 | 1020 ± 1800 | 
3 | B1 |  |  |  |  |  |  | 11.2
